Source: paper doi:10.1101/2024.02.15.580468v1, “Morphing Cholinesterase Inhibitor Amiridine into Multipotent Drugs for the Treatment of Alzheimer’s Disease” (biorxiv, 2024)
Where two headings read alike, the source gives them in different places.

Columns and labels:
[1] = target: T1, hBChE (human serum / plasmatic butyrylcholinesterase) (Homo sapiens, UniProt P06276); assay: biochemical; parameters: modified Ellman assay, cholinesterase activity, absorbance at 412 nm
T1 construct: gene BCHE; native enzyme from human plasma/serum, purchased from Sigma-Aldrich
Protocol: (§1) The inhibitory activities of 5–7 and all the reference compounds were determined using modified Ellman’s method against human recombinant AChE (hAChE, E.C. 3.1.1.7, purchased from Sigma-Aldrich, Prague, Czech Republic) and human plasmatic BChE (hBChE, E.C. 3.1.1.8, purchased from Sigma-Aldrich, Prague, Czech Republic). The results are expressed as IC50 (the concentration of the compound that is required to reduce 50% of cholinesterase activity). Other used compounds – phosphate buffer solution (PBS, pH = 7.4), 5,5’-dithio-bis(2-nitrobenzoic) acid (Ellman’s reagent, DTNB), acetylthiocholine (ATCh) and butyrylthiocholine (BTCh) were also commercially available and were purchased from Sigma-Aldrich (Prague, Czech Republic). During the measurement, 96-well microplates from polystyrene (ThermoFisher Scientific, Waltham, MA, USA) were used. The solutions of corresponding enzyme in PBS were prepared up to final activity 0.002 U/µL. The assay medium (100 µL) consisted of cholinesterase (10 µL), DTNB (20 µL of 0.01 M solution) and PBS (40 µL of 0.1 M solution). The solutions of the tested compounds (10 µL of different concentrations) were pre- incubated for 5 minutes in the assay medium and then solution of substrate (20 µL of 0.01 M ATCh or BTCh iodide solution) was added to initiate the reaction. The increase of absorbance was measured at 412 nm using Multimode microplate reader Synergy 2 (BioTek Inc., Winooski, VT, USA). For the calculation of the resulting measured activity (the percentage of inhibition I) following formula was used: [drawing 1] where ΔAi indicates absorbance change provided by adequate enzyme exposed to corresponding inhibitor and ΔA0 indicates absorbance change when a solution of PBS was added instead of a solution of inhibitor. Software Microsoft Excel (Redmont, WA, USA) and GraphPad Prism version 5.02 for Windows (GraphPad Software, San Diego, CA, USA) were used for the statistical data evaluation. ChEs are enzymes responsible for the hydrolysis and metabolism of various endogenous and exogenous substrates, that are broadly studied in association with disease conditions like myasthenia gravis or AD. The primary attention in the development of AD drugs has been paid to AChE inhibitors. Nevertheless, there is growing interest in nonselective or BChE-selective inhibitors due to the compensatory role of BChE when AChE levels are depleted during the progression of AD [23]. Selective BChE inhibitors may be beneficial for patients in moderate-to-severe stages of AD [23, 24]. […] Accordingly, we assessed the inhibition activities of these novel compounds against human recombinant AChE (hAChE) and human serum BChE (hBChE) following a modified spectrophotometric protocol developed by Ellman et al.. […] Complete data are available in the Supplementary Information (Table S1), including the inhibition percentages for all derivatives. Amiridine hydrochloride (amiridine.HCl) and tacrine (THA) were used as reference compounds. […] Only a superficial structure-activity relationship for AChE inhibition can be drawn from the obtained data. […] The presence of any substituent on the benzothiazole core enhanced anti-AChE activity, with the best-tolerated position for the substituent being 6 for derivatives with halogen atoms (7b-d with bromine or 7g-h with [compound left out]. h

[2] = target: T2, hAChE (human recombinant acetylcholinesterase) (Homo sapiens, UniProt P22303); assay: biochemical; parameters: modified Ellman assay, cholinesterase activity, absorbance at 412 nm
T2 construct: gene ACHE; recombinant enzyme, purchased from Sigma-Aldrich
Protocol: as §1

[3] = in vitro; parameters: MTT viability assay, HepG2 cells; conditions: human, hepg2 cells; read-out: HepG2 IC50
Protocol: (§2) The cytotoxic profile of 5–7 was carried through the use of the MTT (3-(4,5-dimethylthiazol-2-yl)-2,5-diphenyltetrazolium bromide) assay on human neuroblastoma (SH-SY5Y) and hepatocellular carcinoma (HepG2) cell lines, following established protocols. The cytotoxicity was assessed on SH-SY5Y cells in undifferentiated and in differentiated form. The data obtained from the measurements on the undifferentiated SH-SY5Y and HepG2 cells are summarized in Table 1 for 5c-d, 7c and 7g, as well as for the reference compounds amiridine hydrochloride and THA. Additional data can be found in Supplementary Information (Table S2 and Fig. S1). The both cell lines were cultured according to ECACC recommended conditions and seeded into 96-well plates in 100 µL and density of 8000 per well. For evaluation of cytotoxicity of the differentiated form the SH-SY5Y cells also underwent 9-day differentiation protocol into mature neurons according to Riegerová et al .. The tested compounds were dissolved in DMSO (Sigma Aldrich) or in phosphate buffer saline (PBS, Sigma Aldrich) and subsequently in the growth medium - high glucose Dulbecco’s Modified Eagle’s medium (DMEM; Sigma-Aldrich, D6429). […] Then, the differentiated SH-SY5Y cells were treated with concentrations corresponding to IC50 values obtained from the cytotoxicity measurement using undifferentiated SH-SY5Y cells. Cells were exposed to a tested compound for 24 h. Then the medium was replaced by a medium containing 10 μM of MTT and cells were allowed to produce formazan for another approximately 3 h under surveillance. Thereafter, medium was aspirated and purple crystals of MTT formazan were dissolved in 100 μL DMSO under shaking. Cell viability was assessed spectrophotometrically by the amount of formazan produced. Absorbance was measured at 570 nm with 650 nm reference wavelength on Spark (Tecan Group Ltd, Switzerland). The IC50 value was then calculated from the control-subtracted triplicates using non-linear regression (four parameters) of GraphPad Prism 9 software. Final IC50 and SEM values were obtained as a mean of three independent measurements.

[4] = in vitro; parameters: PAMPA blood-brain barrier permeability, effective permeability Pe; conditions: PAMPA-BBB Pe
Excerpt: page 5 / Table S2. Cytotoxicity profiles of 5–7 on SH-SY5Y cell line and predictions to BBB penetration by PAMPA results. / Pe (10^-6 cm.s^-1)

[5] = in vitro; parameters: MTT viability assay, undifferentiated SH-SY5Y cells; conditions: human, undifferentiated sh-sy5y cells, read-out: SH-SY5Y IC50
Protocol: as §2

[6] = target: T3, recombinant human GluN1/GluN2B NMDA receptor (GluN1-4a/GluN2B) (Homo sapiens, UniProt Q05586+Q13224); assay: whole-cell patch clamp, HEK293; type: cell-based; conditions: -60 mV, 1 mM L-glutamate, 100 µM glycine, pH 7.3, steady state; voltage-dependent
T3 construct: gene GRIN1; GluN1-4a and GluN2B co-expressed with GFP in HEK293 cells
Excerpt: whole-cell patch clamp, HEK293 on recombinant human GluN1/GluN2B NMDA receptor (GluN1-4a/GluN2B)

T3 sequence (Q13224 27-1484, other chains not shown): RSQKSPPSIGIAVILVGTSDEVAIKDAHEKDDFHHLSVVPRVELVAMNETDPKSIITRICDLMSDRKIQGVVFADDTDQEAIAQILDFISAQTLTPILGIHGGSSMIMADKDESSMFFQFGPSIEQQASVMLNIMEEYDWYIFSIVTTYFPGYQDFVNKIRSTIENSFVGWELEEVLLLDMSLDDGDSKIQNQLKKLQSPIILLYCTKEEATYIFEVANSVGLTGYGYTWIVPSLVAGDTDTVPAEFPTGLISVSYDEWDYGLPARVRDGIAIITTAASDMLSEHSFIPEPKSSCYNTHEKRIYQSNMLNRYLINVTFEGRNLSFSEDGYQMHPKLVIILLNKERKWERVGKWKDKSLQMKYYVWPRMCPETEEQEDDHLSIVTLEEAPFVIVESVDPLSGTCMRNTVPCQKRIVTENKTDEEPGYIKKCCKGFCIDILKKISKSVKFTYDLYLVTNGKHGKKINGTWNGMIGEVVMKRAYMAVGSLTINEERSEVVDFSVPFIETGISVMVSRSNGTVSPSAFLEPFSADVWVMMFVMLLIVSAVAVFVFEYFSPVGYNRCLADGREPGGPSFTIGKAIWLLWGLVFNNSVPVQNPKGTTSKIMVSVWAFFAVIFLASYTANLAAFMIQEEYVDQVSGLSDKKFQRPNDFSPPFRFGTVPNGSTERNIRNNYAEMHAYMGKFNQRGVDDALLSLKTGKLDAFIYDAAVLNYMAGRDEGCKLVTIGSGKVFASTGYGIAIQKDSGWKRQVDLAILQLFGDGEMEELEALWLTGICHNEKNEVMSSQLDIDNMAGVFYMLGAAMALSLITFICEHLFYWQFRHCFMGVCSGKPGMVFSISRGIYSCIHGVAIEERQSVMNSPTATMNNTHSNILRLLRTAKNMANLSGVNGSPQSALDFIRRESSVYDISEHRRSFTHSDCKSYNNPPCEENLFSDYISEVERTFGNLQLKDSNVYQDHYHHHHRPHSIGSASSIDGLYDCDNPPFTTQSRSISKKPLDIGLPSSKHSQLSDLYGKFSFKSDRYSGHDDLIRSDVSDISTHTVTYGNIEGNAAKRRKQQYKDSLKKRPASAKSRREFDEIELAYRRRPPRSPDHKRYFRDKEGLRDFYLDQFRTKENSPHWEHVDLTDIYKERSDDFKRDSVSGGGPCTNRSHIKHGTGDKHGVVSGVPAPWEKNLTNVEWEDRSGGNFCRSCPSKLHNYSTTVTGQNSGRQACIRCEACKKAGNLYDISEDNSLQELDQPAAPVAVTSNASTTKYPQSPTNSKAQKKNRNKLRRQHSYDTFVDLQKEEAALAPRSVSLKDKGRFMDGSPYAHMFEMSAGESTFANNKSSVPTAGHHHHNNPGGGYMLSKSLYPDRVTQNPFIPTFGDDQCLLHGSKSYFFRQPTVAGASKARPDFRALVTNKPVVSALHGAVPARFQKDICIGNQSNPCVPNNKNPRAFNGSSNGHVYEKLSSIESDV
T2 sequence (P22303 32-614): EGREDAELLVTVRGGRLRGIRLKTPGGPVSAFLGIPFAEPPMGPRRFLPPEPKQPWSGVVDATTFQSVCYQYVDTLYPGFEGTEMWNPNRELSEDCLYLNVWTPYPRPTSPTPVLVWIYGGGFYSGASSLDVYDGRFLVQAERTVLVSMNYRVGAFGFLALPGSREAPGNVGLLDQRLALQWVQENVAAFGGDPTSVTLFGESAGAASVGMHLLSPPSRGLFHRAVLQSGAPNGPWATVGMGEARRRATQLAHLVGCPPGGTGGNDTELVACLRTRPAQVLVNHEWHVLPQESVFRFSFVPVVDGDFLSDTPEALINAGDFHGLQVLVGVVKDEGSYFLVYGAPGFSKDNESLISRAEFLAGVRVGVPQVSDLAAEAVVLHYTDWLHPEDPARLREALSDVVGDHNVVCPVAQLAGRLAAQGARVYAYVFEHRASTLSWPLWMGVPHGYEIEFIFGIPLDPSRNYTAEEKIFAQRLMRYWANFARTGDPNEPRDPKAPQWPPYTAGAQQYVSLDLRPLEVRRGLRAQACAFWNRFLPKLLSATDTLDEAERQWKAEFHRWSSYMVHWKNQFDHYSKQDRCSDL
T1 sequence (P06276 29-602): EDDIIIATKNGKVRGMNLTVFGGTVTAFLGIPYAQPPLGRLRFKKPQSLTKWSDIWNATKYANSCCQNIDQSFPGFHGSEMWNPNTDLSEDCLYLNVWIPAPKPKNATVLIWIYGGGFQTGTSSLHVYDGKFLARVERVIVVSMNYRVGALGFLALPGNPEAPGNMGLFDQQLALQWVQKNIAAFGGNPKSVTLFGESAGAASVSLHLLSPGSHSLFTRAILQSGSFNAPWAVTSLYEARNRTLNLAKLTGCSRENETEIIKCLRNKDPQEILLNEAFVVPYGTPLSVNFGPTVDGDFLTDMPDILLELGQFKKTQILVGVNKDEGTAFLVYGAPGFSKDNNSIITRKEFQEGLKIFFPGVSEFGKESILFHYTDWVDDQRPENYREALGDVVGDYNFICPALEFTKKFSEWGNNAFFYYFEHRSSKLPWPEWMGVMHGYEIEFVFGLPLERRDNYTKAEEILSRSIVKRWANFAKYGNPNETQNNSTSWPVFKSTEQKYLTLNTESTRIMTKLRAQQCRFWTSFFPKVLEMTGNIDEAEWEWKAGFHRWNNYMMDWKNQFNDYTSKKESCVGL

O=C(CNc1nc2ccc(OC(F)(F)F)cc2s1)Nc1c2c(nc3c1CCC3)CCCC2 [7m, N-{1H,2H,3H,5H,6H,7H,8H-cyclopenta[b]quinolin-9-yl}-2-{[6-(trifluoromethoxy)-1,3-benzothiazol-2-yl]amino}acetamide]
inhibition at 1 µM [1]: 1.5 ± 0.64% | inhibition at 1 µM [2]: 13.3 ± 0.71% | CC50 at 24 h [3]: ≥ 200 µM | Papp [4]: 2.54 ± 0.42 ×10⁻⁶ cm/s | CC50 at 24 h [5]: 29.5 ± 2.3 µM | RI (% inhibition at 30 μM) [6]: 63.0 ± 2.6%
